≈ marks a conversion by molar mass, not a printed value.
Tests used:
Escherichia Coli [1] = assay: MIC, twofold serial dilution, 96-well microtiter plate; type: cell-based; conditions: Escherichia coli (G−); read-out: Minimum inhibitory concentration (MIC)
Protocol: (§1) The antibacterial activity of compounds 5f, 5h, 5i, and 5k were evaluated using a twofold serial dilution method ([Parasa et al., 2011]), with ciprofloxacin as the reference compound. The MIC values for certain compounds were obtained through dose-response experiments. The stated values are based on a minimum of two independent experiments, with three replicates per concentration in each experiment. The experimental details can be found in Appendix A (Supplementary Material). […]
(§2) 4.2.2. Minimum inhibitory concentration assay
(§3) In 96-well microtiter plates and […] of fresh bacterial culture of a single McFarland unit overnight, a double serial dilution of each compound […] in sterile standard saline were prepared to every single source well. Ciprofloxacin antibiotic (5 mg / mL - 1) and normal saline were included as standard reference in each assay. The plates were incubated at 37 0C overnight. As an indicator of bacterial growth, […] of p-iodonitrotetrazolium violet (INT) was added to each well and incubated at 37 0C for 30 […]
(§4) min. MIC values are recorded as the lowest concentration of the extract that completely inhibited bacterial growth that is clear well. The colorless tetrazolidium salt acts as an electron accepter and is reduced to a red colored formazan product by biological activity organisms. Where bacterial growth was inhibited, the solution in the well remained clear after incubation with INT. […]
(§5) SybrGOLD in T10 buffer (10 mM Tris HCl with pH 8.0 and 1 mM EDTA) was added. […]

Pseudomonas aeruginosa [2] = assay: as above; type: cell-based; conditions: Pseudomonas aeruginosa (G−); read-out: Minimum inhibitory concentration (MIC)
Protocol: as §1, §2, §3, §4, §5

Bacillus subtilis [3] = assay: as above; type: cell-based; conditions: Bacillus subtilis (G+); read-out: Minimum inhibitory concentration (MIC)
Protocol: as §1, §2, §3, §4, §5

Staphylococcus aureus = assay: as above; type: cell-based; conditions: Staphylococcus aureus (G+); read-out: Minimum inhibitory concentration (MIC)
Protocol: as §1, §2, §3, §4, §5

Staph. aureus = assay: Modified Kirby-Bauer disc diffusion; type: cell-based, Staphylococcus aureus; conditions: for Inhibition zone diameter: Staph. aureus (G+)
Protocol: (§6) The antimicrobial activity of compounds 5a-k was assessed using a modified Kirby-Bauer disc diffusion method ([Alkhaldi et al., 2019]; [Al-Wahaibi et al., 2021b]; [Manso et al., 2021]; [Ecevit et al., 2022]). […] Ciprofloxacin was used as a reference medication. […] Compounds 5f-k had promising antibacterial action against Gram-positive and Gram-negative bacteria, ranging from 75% to 115% of typical ciprofloxacin levels. […]
(§7) incubated at 35-37 °C for 24-48 hours and yeast as Candida albicans (ATCC 7102) incubated at 30 °C for 24-48 hours and, then the diameters of the inhibition zones were measured in millimeters. Standard discs of ciprofloxacin (Antibacterial agent), Fluconazole (Antifungal agent) served as positive controls for antimicrobial activity but filter discs impregnated with 10 µl of solvent (distilled water, chloroform, DMSO) were used as a negative control. Blank paper disks (Schleicher & Schuell, Spain) with a diameter of 8.0 mm were impregnated 10µ of tested concentration of the stock solutions. When a filter paper disc impregnated with a tested chemical is placed on agar the chemical will diffuse from the disc into the agar. This diffusion will place the chemical in the agar only around the disc. The solubility of the chemical and its molecular size will determine the size of the area of chemical infiltration around the disc. If an organism is placed on the agar it will not grow in the area around the disc if it is susceptible to the chemical. This area of no growth around the disc is known as a “Zone of inhibition” or" Clear zone". For the disc diffusion, the zone diameters were measured with slipping calipers of the National Committee for Clinical Laboratory […]
(§8) Agar-based methods such as E-test and disk diffusion can be good alternatives because they are simpler and faster than broth-based methods. […]

Escherichia Coli [4] = assay: Modified Kirby-Bauer disc diffusion; type: cell-based; conditions: Escherichia Coli (G−)
Protocol: as §6, §7, §8

Pseudomonas aeruginosa [5] = assay: Modified Kirby-Bauer disc diffusion; type: cell-based; conditions: Pseudomonas aeruginosa (G−)
Protocol: as §6, §7, §8

Bacillus subtilis [6] = assay: Modified Kirby-Bauer disc diffusion; type: cell-based; conditions: Bacillus subtilis (G+)
Protocol: as §6, §7, §8

Aspergillus flavus = assay: Modified Kirby-Bauer disc diffusion (antifungal); type: cell-based; conditions: Aspergillus flavus (fungi)
Protocol: (§9) The antimicrobial activity of compounds 5a-k was assessed using a modified Kirby-Bauer disc diffusion method ([Alkhaldi et al., 2019]; [Al-Wahaibi et al., 2021b]; [Manso et al., 2021]; [Ecevit et al., 2022]). […] Ciprofloxacin was used as a reference medication. […] Compounds 5f-k had promising antibacterial action against Gram-positive and Gram-negative bacteria, ranging from 75% to 115% of typical ciprofloxacin levels.
(§10) In addition, the synthesized compounds 5a-k were evaluated for their antifungal activity against A. flavus and C. albicans, with Fluconazole as a reference medication (Table 1). […]
Standard discs of ciprofloxacin (Antibacterial agent), Fluconazole (Antifungal agent) served as positive controls for antimicrobial activity but filter discs impregnated with 10 µl of solvent (distilled water, chloroform, DMSO) were used as a negative control. Blank paper disks (Schleicher & Schuell, Spain) with a diameter of 8.0 mm were impregnated 10µ of tested concentration of the stock solutions. When a filter paper disc impregnated with a tested chemical is placed on agar the chemical will diffuse from the disc into the agar. This diffusion will place the chemical in the agar only around the disc. The solubility of the chemical and its molecular size will determine the size of the area of chemical infiltration around the disc. If an organism is placed on the agar it will not grow in the area around the disc if it is susceptible to the chemical. This area of no growth around the disc is known as a “Zone of inhibition” or" Clear zone". For the disc diffusion, the zone diameters were measured with slipping calipers of the National Committee for Clinical Laboratory […]
as §8

Candida albicans = assay: Modified Kirby-Bauer disc diffusion (antifungal); type: cell-based; conditions: Candida albicans (fungi)
Protocol: as §9, §10, §7, §8

M. tuberculosis H37Rv = system: M. tuberculosis H37Rv; design: method as in Abdu-Allah et al., 2017; conditions: ref Abdu-Allah et al., 2017; cited from earlier work
mycobacterium = system: mycobacterium; design: method as in Abdu-Allah et al., 2017; conditions: nutrition starvation paradigm, 10 μg/mL; ref Abdu-Allah et al., 2017; cited from earlier work
P. fluorescence = system: P. fluorescence; design: method as in Shi et al., 2007; conditions: ref Shi et al., 2007; cited from earlier work
E. Coli = system: E. Coli; design: method as in Shi et al., 2007; conditions: ref Shi et al., 2007; cited from earlier work
B. subtilis = system: B. subtilis; design: method as in Shi et al., 2007; conditions: ref Shi et al., 2007; cited from earlier work
[7] = system: E. coli b-Ketoacyl-acyl carrier protein synthase III (ecKAS III); design: method as in Cheng et al., 2010; conditions: ref Cheng et al., 2010; cited from earlier work
[8] = system: DNA methyltransferases (DNMTs); design: method as in Leroy et al., 2019; conditions: ref Leroy et al., 2019; cited from earlier work
[9] = biological target: S. aureus topoisomerase IV; conditions: read-out: IC50 S. aureus topoisomerase IV; internal standard value stated in the supplementary method; cited from earlier work
[10] = system: Gram-positive and Gram-negative bacteria; assay: Disc diffusion, activity relative to ciprofloxacin over the bacterial panel; type: cell-based; conditions: Gram-negative strains
Protocol: as §6
incubated at 35-37 °C for 24-48 hours and yeast as Candida albicans (ATCC 7102) incubated at 30 °C for 24-48 hours and, then the diameters of the inhibition zones were measured in millimeters. Standard discs of ciprofloxacin (Antibacterial agent), Fluconazole (Antifungal agent) served as positive controls for antimicrobial activity but filter discs impregnated with 10 µl of solvent (distilled water, chloroform, DMSO) were used as a negative control. Blank paper disks (Schleicher & Schuell, Spain) with a diameter of 8.0 mm were impregnated 10µ of tested concentration of the stock solutions. When a filter paper disc impregnated with a tested chemical is placed on agar the chemical will diffuse from the disc into the agar. This diffusion will place the chemical in the agar only around the disc. […] For the disc diffusion, the zone diameters were measured with slipping calipers of the National Committee for Clinical Laboratory […]

| Compound | Inhibition zone diameter (Staph. aureus) | Inhibition zone diameter (Escherichia Coli [4]) | Inhibition zone diameter (Pseudomonas aeruginosa [5]) | Inhibition zone diameter (Bacillus subtilis [6]) | Inhibition zone diameter (Aspergillus flavus) | Inhibition zone diameter (Candida albicans) | further results |
| --- | --- | --- | --- | --- | --- | --- | --- |
| O=C(O)c1cn(C2CC2)c2cc(N3CCNCC3)c(F)cc2c1=O [Ciprofloxacin, reference compound] | 40 mm/mg Sample | 40 mm/mg Sample | 40 mm/mg Sample | 40 mm/mg Sample | – | – | MIC (Escherichia Coli [1]): 0.06 µg/mL (≈ 0.181 µM); MIC (Pseudomonas aeruginosa [2]): 0.06 µg/mL (≈ 0.181 µM); MIC (Bacillus subtilis [3]): 0.01 µg/mL (≈ 0.0302 µM); MIC (Staphylococcus aureus): 0.03 µg/mL (≈ 0.0905 µM) |
| OC(Cn1cncn1)(Cn1cncn1)c1ccc(F)cc1F [Fluconazole, reference compound] | – | – | – | – | 40 mm/mg Sample | 40 mm/mg Sample | – |
| O=C(N/N=C1\C(=O)N(Cc2ccc(Cl)cc2)c2ccccc21)c1cc(-n2cc(-c3ccccc3)nn2)ccc1O [III] | – | – | – | – | – | – | MIC (M. tuberculosis H37Rv): 0.39 µg/mL (≈ 0.71 µM); reduction of bacterial count (mycobacterium): 2.4 logs |
| CC(C/N=C/c1cc(Cl)ccc1O)C/N=C/c1cc(Cl)ccc1O [II] | – | – | – | – | – | – | MIC (P. fluorescence): 3.6 µg/mL (≈ 9.86 µM); MIC (E. Coli): 4.9 µg/mL (≈ 13.4 µM); MIC (B. subtilis): 1.8 µg/mL (≈ 4.93 µM) |
| CC(CNC(=O)c1ccccc1O)/N=C/c1cc(Cl)cc(Cl)c1O (centres unmarked) [IV] | – | – | – | – | – | – | inhibitory activity against ecKAS III [7]: potent inhibitory activity |
| NC[C@H]1O[C@H](O[C@H]2[C@H](O)[C@@H](O[C@H]3O[C@H](CO)[C@@H](O)[C@H](N)[C@H]3O)[C@H](N)C[C@@H]2N)[C@H](O)[C@@H](O)[C@@H]1O [Kanamycin] | – | – | – | – | – | – | MIC (P. fluorescence): 3.9 µg/mL (≈ 8.05 µM); MIC (E. Coli): 3.9 µg/mL (≈ 8.05 µM); MIC (B. subtilis): 0.39 µg/mL (≈ 0.805 µM) |
| O=C(O)c1cc(Cc2ccc(O)c(C(=O)O)c2)ccc1O [NSC 14778, disalicylic acid methylene] | – | – | – | – | – | – | inhibitory activity on DNMTs [8]: within the micromolar range |
| CO[C@@H]1[C@@H](OC(N)=O)[C@@H](O)[C@H](Oc2ccc3c(O)c(NC(=O)c4ccc(O)c(CC=C(C)C)c4)c(=O)oc3c2C)OC1(C)C [Novobiocin] | – | – | – | – | – | – | IC50 [9]: 26.7 µM |
| N'-((E)-2-Chlorobenzylidene)-4-(4-(2-((Z)-2-chlorobenzylidene)hydrazine-1-carbonyl)-3-hydroxybenzyl)-2-hydroxybenzohydrazide [Compound 5e] | 30 mm/mg Sample | 28 mm/mg Sample | 28 mm/mg Sample | 27 mm/mg Sample | 0.0 mm/mg Sample | 12 mm/mg Sample | – |
| N'-((E)-3-Chlorobenzylidene)-4-(4-(2-((Z)-3-chlorobenzylidene)hydrazine-1-carbonyl)-3-hydroxybenzyl)-2-hydroxybenzohydrazide [Compound 5g] | 35 mm/mg Sample | 30 mm/mg Sample | 30 mm/mg Sample | 33 mm/mg Sample | 0.0 mm/mg Sample | 0.0 mm/mg Sample | activity of ciprofloxacin [10]: 75%; activity compared to ciprofloxacin (Staph. aureus; S. aureus): 88% |
| N'-((E)-4-Bromobenzylidene)-4-(4-(2-((Z)-4-bromobenzylidene)hydrazine-1-carbonyl)-3-hydroxybenzyl)-2-hydroxybenzohydrazide [Compound 5d] | 31 mm/mg Sample | 30 mm/mg Sample | 26 mm/mg Sample | 28 mm/mg Sample | 0.0 mm/mg Sample | 10 mm/mg Sample | – |
| N'-((E)-4-Chlorobenzylidene)-4-(4-(2-((Z)-4-chlorobenzylidene)hydrazine-1-carbonyl)-3-hydroxybenzyl)-2-hydroxybenzohydrazide [Compound 5b] | 27 mm/mg Sample | 26 mm/mg Sample | 26 mm/mg Sample | 26 mm/mg Sample | 0.0 mm/mg Sample | 7 mm/mg Sample | – |
| N'-((E)-4-Methoxybenzylidene)-4-(4-(2-((Z)-4-methoxybenzylidene)hydrazine-1-carbonyl)-3-hydroxybenzyl)-2-hydroxybenzohydrazide [Compound 5j] | 33 mm/mg Sample | 30 mm/mg Sample | 30 mm/mg Sample | 31 mm/mg Sample | 0.0 mm/mg Sample | 0.0 mm/mg Sample | – |
| N'-((E)-4-Nitrobenzylidene)-4-(4-(2-((Z)-4-nitrobenzylidene)hydrazine-1-carbonyl)-3-hydroxybenzyl)-2-hydroxybenzohydrazide [Compound 5c] | 27 mm/mg Sample | 27 mm/mg Sample | 25 mm/mg Sample | 26 mm/mg Sample | 0.0 mm/mg Sample | 11 mm/mg Sample | – |
| N'-((E)-Benzylidene)-4-(4-(2-((Z)-benzylidene)hydrazine-1-carbonyl)-3-hydroxy benzyl)-2-hydroxybenzohydrazide [Compound 5a] | 25 mm/mg Sample | 24 mm/mg Sample | 21 mm/mg Sample | 21 mm/mg Sample | 0.0 mm/mg Sample | 0.0 mm/mg Sample | – |

Reference: publication PMC11191877, “Discovery of new Schiff bases of the disalicylic acid scaffold as DNA gyrase and topoisomerase IV inhibitors endowed with antibacterial properties” (Frontiers in Chemistry, 2024)
